The text below walks through data of patent US10287298B2, “Nitrogen-containing analogs of salinomycin, synthesis and use against cancer stem cells and malaria” (Centre National de la Recherche Scientifique (CNRS), priority 2014, dated 2019).

Structures are written as SMILES. Like-named read-outs stand apart in the source and are kept apart here.

One experiment has as its system BT20. The experiment in a line: Cell death IC50, Annexin V-FITC/PI flow cytometry. In kind it is cell-based. The settings on record: Homo sapiens, read-out: IC50 BT20. The method, then: (§1) The cells were seeded in a 6-well plate at density 5.105 cells/well and cultured overnight. The cells were then treated with various concentration (15, 30, 100, 500, 1000 and 10.000 nM) of salinomycine, AM5 and AM23 for 72 h, 96 h and 108 h. After treatment, cell death was quantified using Annexin V-FITC/Propidium Iodide (PI) assay according to the manufacturer's protocol (FITC Annexin V Apoptosis Detection Kit II, 556570, BD Pharmingen™) and analyzed by a LSRFortessa™ flow cytometer (BD Bioscience, San Jose, Calif.). The data were processed using Cell Quest software (BD Biosciences). Dose-response cell death curves were determined for indicated time.
(§2) For tumor cells, the cells are classified in function of their sensitivity of drugs. Here, the most sensitive cells are incubated for 72 h, the middle sensitive cells for 96 h and the less sensitive or resistant cells are incubated for 108 h with drug at several concentrations.
(§3) Concentrations of 30 nM, 500 nm and 1 μM were used for determining the IC50 of drugs.
(§4) Intervals][…]] mean that IC50 is included in this interval with exclusion of the valor 30 nM.
(Flow cytometry measures light scatter and fluorescence of single cells or particles in a stream.)

The next experiment relates to BT474. Briefly: Cell death IC50, Annexin V-FITC/PI flow cytometry. Type of experiment: cell-based. To be noted: Homo sapiens, read-out: IC50 BT474. As to the method: as §1, §2, §3, §4
For another experiment, the system named is BT549. The experiment in a line: Cell death IC50, Annexin V-FITC/PI flow cytometry. In kind it is cell-based. The settings on record: Homo sapiens, read-out: IC50 BT549. The method, then: as §1, §2, §3, §4
The subject of a further experiment is HBL100. Briefly: Cell death IC50, Annexin V-FITC/PI flow cytometry. Type of experiment: cell-based. To be noted: Homo sapiens. The method, then: as §1, §2, §3, §4
The next experiment concerns HMLE W2. Briefly: Cell death IC50, Annexin V-FITC/PI flow cytometry. In kind it is cell-based. To be noted: Homo sapiens, read-out: IC50 HMLE W2. As to the method:
as §1, §2, §3, §4

The test system of the next experiment is HMLER CD24low. Briefly: Cell death IC50, Annexin V-FITC/PI flow cytometry. Type of experiment: cell-based. The settings on record: Homo sapiens, read-out: IC50 HMLER CD24low. The method, then: as §1, §2, §3, §4
Another experiment relates to HMLER GFP. The experiment in a line: Cell death IC50, Annexin V-FITC/PI flow cytometry. In kind it is cell-based. The settings on record: Homo sapiens; 1rst sensibility (72 h). As to the method:
as §1, §2, §3, §4

The next experiment concerns HMLER ID2. Briefly: Cell death IC50, Annexin V-FITC/PI flow cytometry. In kind it is cell-based. To be noted: Homo sapiens, read-out: IC50 HMLER ID2. The method, then: as §1, §2, §3, §4
The test system of the next experiment is HMLER shECAD. The experiment in a line: Cell death IC50, Annexin V-FITC/PI flow cytometry. Type of experiment: cell-based. The settings on record: Homo sapiens, read-out: IC50 HMLER shECAD. The method, then:
as §1, §2, §3, §4

The subject of a further experiment is MCF-7. The experiment in a line: Cell death IC50, Annexin V-FITC/PI flow cytometry. Type of experiment: cell-based. The settings on record: Homo sapiens, read-out: IC50 MCF-7. The method, then: as §1, §2, §3, §4
A further experiment has as its system MDA-MB-134. The experiment in a line: Cell death IC50, Annexin V-FITC/PI flow cytometry. In kind it is cell-based. To be noted: Homo sapiens, read-out: IC50 MDA-MB-134. As to the method:
as §1, §2, §3, §4

Another experiment has as its system MDA-MB-231. Briefly: Cell death IC50, Annexin V-FITC/PI flow cytometry. Type of experiment: cell-based. To be noted: Homo sapiens, read-out: IC50 MDA-MB-231. The method, then: as §1, §2, §3, §4
The next experiment deals with MDA-MB-361. The experiment in a line: Cell death IC50, Annexin V-FITC/PI flow cytometry. In kind it is cell-based. The settings on record: Homo sapiens, read-out: IC50 MDA-MB-361. As to the method:
as §1, §2, §3, §4

For the next experiment, the system named is MDA-MD-157. The experiment in a line: Cell death IC50, Annexin V-FITC/PI flow cytometry. Type of experiment: cell-based. The settings on record: Homo sapiens, read-out: IC50 MDA-MD-157. The method, then: as §1, §2, §3, §4
The next experiment relates to T47D. Briefly: Cell death IC50, Annexin V-FITC/PI flow cytometry. In kind it is cell-based. To be noted: Homo sapiens, Resistant (108 h). The method, then: as §1, §2, §3, §4
For a further experiment, the system named is Zr75.1. Briefly: Cell death IC50, Annexin V-FITC/PI flow cytometry. The settings on record: Homo sapiens, read-out: IC50 Zr75.1. Type of experiment: cell-based. As to the method: as §1, §2, §3, §4
The next experiment deals with SW480. Briefly: Cell death IC50, Annexin V-FITC/PI flow cytometry. The settings on record: Homo sapiens, read-out: IC50 SW480. Type of experiment: cell-based. As to the method: as §1, §2, §3, §4
(§5) The SW620 and SW480 cell lines are from colon tumors.

For another experiment, the system named is SW620. Briefly: Cell death IC50, Annexin V-FITC/PI flow cytometry. Type of experiment: cell-based. The settings on record: Homo sapiens, read-out: IC50 SW620. The method, then: as §1, §2, §3, §4, §5
For another experiment, the system named is HMLER CD24− cells. The experiment in a line: Cell proliferation and formation of mammospheres. In kind it is cell-based, Human. An excerpt: FIG. 2 is a representative phase contrast photomicrographs of mammospheres formed after 11 days in the absence of any added compound (Control) or in the presence of a defined amount of salinomycine, AM5, AM9 or AM13. […] The size of the mammospheres is correlated with progenitor cell proliferation, whereas the number of mammospheres formed after serial passages at clonal density is correlated with the self-renewal capacity of primitive Cancer Stem Cells. […]
FIG. 9 represents images of the third generation of mammospheres formed from individual HMLER CD24low cells treated during 7 days with the indicated drug. The size of the mammospheres is correlated with progenitor cell proliferation capacity, whereas the number of mammospheres formed after serial passages at clonal density is correlated with the self-renewal capacity of primitive Cancer Stem Cells.
AM5, AM9, AM13 and salinomycine were assessed for their capability to inhibit cell proliferation and formation of mammospheres. […]
AM5 and AM23 and salinomycine were assessed for their capability to inhibit cell proliferation and formation of mammospheres.

A further experiment relates to Cell lines. The experiment in a line: Apoptosis by Annexin V-FITC and PI staining with or without NAC. Type of experiment: cell-based. The settings on record: 500 nM, 48 h. As to the method: FIG. 5: Salinomycine analogue—induced cell death is inhibited by the ROS scavenger N-acetylcysteine (NAC). Cell lines were incubated with or without 500 nM of Sal analogues for 48 h. Apoptosis was evaluated by Annexin V-FITC and PI staining, and FACS analysis. All data are expressed as means±s.d. from three individual experiments (*; P<0.05)
Salinomycine analogue-induced cell death is inhibited by the ROS scavenger N-acetylcysteine (NAC). Cell lines were incubated with or without 500 nM of Sal analogues for 48 h. Apoptosis was evaluated by AnnexinV-FITC and PI staining, and FACS analysis.

Setting [1] is: third generation of mammospheres, HMLER CD24low cells treated 7 days.

Regarding `C#CCN[C@@H]1C=C[C@]2(O[C@H]([C@@H](CC)C(=O)[C@@H](C)[C@@H](O)[C@H](C)C3O[C@@H](C(CC)C(=O)O)CC[C@@H]3C)[C@@H](C)C[C@H]2C)O[C@@]12CC[C@@](C)([C@H]1CC[C@](O)(CC)[C@H](C)O1)O2` (stereo partly shown) [AM5, Sal-Propargylamine], the IC50 (as a rule, the point on the concentration scale where inhibition reaches its midpoint) is 30 to 500 nM in the experiment with BT20 (BT-20, 3rd sensibility (108 h)); greater than 1000 nM with BT474 (BT-474, 2nd sensibility (96 h)); greater than 1000 nM in the experiment on BT549 (BT-549, Resistant (108 h)); greater than 1000 nM in the experiment with HBL100 (HBL-100, No tumoral, read-out: IC50 HBL100); greater than 1000 nM with HMLE W2 (Immortalized); less than 30 nM in the experiment on HMLER CD24low (1rst sensibility (72 h)). Further, the concentration for half-maximal inhibition (IC50) in the experiment on HMLER GFP is 1000 nM; in the experiment on HMLER ID2 (1rst sensibility (72 h)), greater than 1000 nM; in the experiment with HMLER shECAD (1rst sensibility (72 h)) it was 30 to 500 nM; in the experiment on MCF-7 (MCF7, 1rst sensibility (72 h), ]30-500] excludes 30 nM) it was 30 to 500 nM; with MDA-MB-134 (2nd sensibility (96 h)), 30 to 500 nM; with MDA-MB-231 (MDA-MB-231, 2nd sensibility (96 h)), greater than 1000 nM. The IC50 is 500 nM with MDA-MB-361 (MDA-MB-361, 2nd sensibility (96 h)); 500 nM with MDA-MD-157 (2nd sensibility (96 h)); greater than 1000 nM in the experiment on T47D; 30 to 500 nM in the experiment on Zr75.1 (ZR-75-1, 1rst sensibility (72 h), ]30-500] excludes 30 nM); 30 to 500 nM in the experiment on SW480 (SW480, 3rd sensibility (108 h), colon tumor cells); 30 to 500 nM in the experiment on SW620 (SW-620, 3rd sensibility (108 h), colon tumor cells). In addition, the “inhibition of cell proliferation, efficacy in comparison with salinomycine” value in the experiment on HMLER CD24− cells (at 30 nM) is reported as “ten-fold improved efficacy”. In addition, the “number and size of mammosphere” value in the experiment on HMLER CD24− cells (mammospheres after 11 days, low nanomolar concentrations) is “reduced the number and the size of mammosphere”. In addition, the number of mammospheres entry in the experiment on HMLER CD24− cells (setting [1]) is recorded as “reduced the number of mammospheres”. Also, in the experiment with HMLER CD24− cells (setting [1]), the size of mammospheres entry is “do not alter the tumor diameters”. Also, the “cell death (apoptosis) mechanism” value in the experiment on Cell lines is on record as “induce cell death through lysosomal ROS production”.

With `CCC(C(=O)O)[C@H]1CC[C@H](C)C([C@@H](C)[C@H](O)[C@H](C)C(=O)[C@H](CC)[C@H]2O[C@]3(C=C[C@@H](O)[C@]4(CC[C@@](C)([C@H]5CC[C@](O)(CC)[C@H](C)O5)O4)O3)[C@H](C)C[C@@H]2C)O1` (stereo partly shown) [Salinomycine, Salinomycin], the concentration for half-maximal inhibition (IC50) was 500 nM in the experiment with BT20 (BT-20, 108 h); greater than 1000 nM with BT474 (BT-474, 96 h); greater than 1000 nM with BT549 (BT-549, 108 h); greater than 1000 nM in the experiment with HBL100 (HBL-100, read-out: IC50 HBL100); greater than 1000 nM in the experiment on HMLE W2; 30 to 500 nM in the experiment on HMLER CD24low (72 h). The half-maximal inhibitory concentration (IC50) with HMLER GFP was 1000 nM; with HMLER ID2 (72 h) it was greater than 1000 nM; in the experiment on HMLER shECAD (72 h) it was 30 to 500 nM; with MCF-7 (MCF7, 72 h) it was 30 to 500 nM; in the experiment on MDA-MB-134 (96 h), 30 to 500 nM; with MDA-MB-231 (MDA-MB-231, 96 h), greater than 1000 nM. In addition, the IC50 in the experiment with MDA-MB-361 (MDA-MB-361, 96 h) was 500 nM; with MDA-MD-157 (96 h), 1000 nM; with T47D it was greater than 1000 nM; with Zr75.1 (ZR-75-1, 72 h), 500 nM; with SW480 (SW480, 108 h) it was 30 to 500 nM; with SW620 (SW-620, 108 h), 500 to 1000 nM. Also, the size of mammospheres result in the experiment with HMLER CD24− cells (setting [1]) is “do not alter the tumor diameters”. Besides, the “cell death (apoptosis) mechanism” value in the experiment on Cell lines is listed as “induce cell death through lysosomal ROS production”.
